The record followed here is paper PMC2753600 (The FEBS journal, 2009).

Residue numbers refer to the chain shown, from its start. Structures can show the parent of a compound that is named as a salt. Where two headings read alike, the source gives them in different places.

Format in all cases: biochemical
The target of test [1] is T1, purified wild-type human MAO A (Homo sapiens, UniProt P21397).
T1 sequence (P21397 1-527): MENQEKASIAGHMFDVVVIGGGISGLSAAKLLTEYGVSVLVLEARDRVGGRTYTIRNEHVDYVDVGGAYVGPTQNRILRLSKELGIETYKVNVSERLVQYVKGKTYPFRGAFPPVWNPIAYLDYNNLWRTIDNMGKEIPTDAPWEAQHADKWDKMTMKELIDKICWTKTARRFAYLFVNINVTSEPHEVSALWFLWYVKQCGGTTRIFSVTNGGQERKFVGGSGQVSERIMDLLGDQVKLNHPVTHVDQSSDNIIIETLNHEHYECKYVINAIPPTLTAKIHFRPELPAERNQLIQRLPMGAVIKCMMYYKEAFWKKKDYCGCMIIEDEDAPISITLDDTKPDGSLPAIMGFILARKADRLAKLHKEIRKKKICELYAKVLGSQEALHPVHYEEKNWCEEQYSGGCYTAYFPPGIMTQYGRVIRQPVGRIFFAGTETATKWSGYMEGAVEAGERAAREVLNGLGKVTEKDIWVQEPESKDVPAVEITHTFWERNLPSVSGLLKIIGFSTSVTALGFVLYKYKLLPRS
Description: Competitive inhibition of purified wild-type human MAO A.

The target of test [2] is T2, purified human MAO A Ser209Ala mutant (Homo sapiens, UniProt P21397, S209A).
T2 sequence (P21397 1-527 S209A): T1 sequence (P21397 1-527) with S209A
Description: Competitive inhibition of purified human MAO A Ser209Ala mutant.

In test [3] the target is T3, purified human MAO A Ser209Glu mutant (Homo sapiens, UniProt P21397, S209E).
T3 sequence (P21397 1-527 S209E): T1 sequence (P21397 1-527) with S209E
Description: Competitive inhibition of purified human MAO A Ser209Glu mutant. The settings on record: for lower affinity for the Ser209Glu mutant than for the wild-type enzyme: purified Ser209Glu vs purified wild-type MAO A.

Test [4] deals with T4, membrane-bound wild-type MAO A (Homo sapiens, UniProt P21397).
T4 sequence (P21397 1-527): T1 sequence (P21397 1-527)
Briefly: Steady-state kinetics of membrane-bound wild-type MAO A. The settings on record: 50 mM potassium phosphate pH 7.5.

For test [5], the target named is T5, membrane-bound MAO A Ser209Glu mutant (Homo sapiens, UniProt P21397, S209E).
T5 sequence (P21397 1-527 S209E): T1 sequence (P21397 1-527) with S209E
Briefly: Steady-state kinetics of membrane-bound MAO A Ser209Glu mutant. As to conditions: 50 mM potassium phosphate pH 7.5.

For orientation: Ki means the dissociation constant of the complex between target and ligand, obtained from inhibition or displacement. Turning to `C[C@H](N)Cc1ccccc1` [d-Amphetamine, d-amphetamine], the Ki in test [1] came to 3.69 ± 0.45 µM; in test [2] it was 4.72 ± 0.63 µM; in test [3], 609 ± 31.6 µM. The “lower affinity for the Ser209Glu mutant than for the wild-type enzyme” value (“lower affinity” for short) in test [3] turned out to be 160 fold.
With `CC(C)(N)Cc1ccccc1` [Phentermine, phentermine], in test [3], the “lower affinity” value is given as 13 fold.
Take `Cc1nccc2c1[nH]c1ccccc12` [Harmane]: the “binding to the Ser209Glu mutant compared with wild-type or Ser209Ala MAO A” value in test [3] (purified enzymes) is recorded as “much more weakly”.
As usually defined, the Km is the substrate concentration at which the rate is half of its maximum. For orientation: kcat means the number of substrate molecules converted per active site and unit of time at saturation. For the molecule `NCCc1ccccc1` [Phenylethylamine, β-phenylethylamine], the results for the Michaelis constant (Km) in test [4] and in test [5] were 470 ± 40 µM and 850 ± 70 µM, respectively. Further, the kcat in test [4] came to 0.8095 ± 0.0177 s⁻¹; in test [5], 1.068 ± 0.0238 s⁻¹.
Turning to `O=C1Nc2ccccc2C1=O` [Isatin, isatin], the “lower affinity” value in test [3] turned out to be 20 fold.
In test [1] (competitive inhibition constant, purified wild-type human MAO A), `c1cc2c(cc1C1CCCCC1)c1c3n2CCNC3CCC1` (stereo not drawn) [Tetrindole Mesylate, tetrindole mesylate] yielded an inhibition constant (Ki) of 5.27 ± 0.24 µM.
Regarding `Cc1ccc2c(c1)c1c3n2CCNC3CCC1` (stereo not drawn) [Pirlindole Mesylate, pirlindole mesylate], the results for the Ki in test [1], in test [2] and in test [3] were 0.92 ± 0.04 µM, 0.88 ± 0.18 µM and 21.5 ± 1.36 µM, respectively.
